2 compounds from paper PMC11751314, “Engineering of acyl ligase domain in non-ribosomal peptide synthetases to change fatty acid moieties of lipopeptides” (Communications Chemistry, 2025) can be followed below.

The structures appear in SMILES notation.

For assay [1], the target named is T1, ItuAL_WT-MycACP (ituAL-ACP1) (Bacillus subtilis, UniProt Q93I56).
T1 construct: gene ituA; N-terminally His-tagged fusion of ItuAL (584 aa, RB14) with adjacent MycACP (ATCC6633); pET28a, E. coli BL21-AI; ACP in apo-form; catalytic pocket lies wholly in ItuAL; with Mycosubtilin synthase subunit A, first acyl carrier protein domain
T1 sequence (Q93I56 1-584): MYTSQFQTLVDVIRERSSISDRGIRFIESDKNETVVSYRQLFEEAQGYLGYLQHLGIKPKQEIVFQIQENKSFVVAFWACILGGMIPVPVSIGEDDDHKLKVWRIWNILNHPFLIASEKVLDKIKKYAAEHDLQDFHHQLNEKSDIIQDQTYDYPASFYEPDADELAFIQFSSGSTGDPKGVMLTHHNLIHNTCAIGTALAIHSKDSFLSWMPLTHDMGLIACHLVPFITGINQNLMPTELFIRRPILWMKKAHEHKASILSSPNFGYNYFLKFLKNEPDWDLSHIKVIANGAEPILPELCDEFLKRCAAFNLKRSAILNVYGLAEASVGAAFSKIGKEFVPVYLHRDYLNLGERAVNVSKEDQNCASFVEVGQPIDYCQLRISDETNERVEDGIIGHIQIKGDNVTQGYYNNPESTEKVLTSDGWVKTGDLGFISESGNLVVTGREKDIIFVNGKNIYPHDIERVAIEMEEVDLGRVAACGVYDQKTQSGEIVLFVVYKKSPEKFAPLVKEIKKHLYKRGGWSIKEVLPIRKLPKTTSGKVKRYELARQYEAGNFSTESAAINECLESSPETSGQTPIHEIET
T1 sequence (Q9R9J1 586-668 partner limits assumed): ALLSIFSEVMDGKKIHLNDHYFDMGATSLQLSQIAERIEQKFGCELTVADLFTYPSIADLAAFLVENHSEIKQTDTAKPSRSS
Description: HPLC of fatty acyl-AMP formed ([…] nm). It counts as biochemical. The following applies: 1 mM fatty acid, 1 mM ATP, 50 mM MgCl2, 50 mM HEPES pH 7.5, 0.01% Brij35, 30% DMSO, 30 °C, 30 min; 10 μM enzyme, apo-ACP.

The target in the next assay is T2, (ituAL-ACP1) (Bacillus subtilis, UniProt Q93I56, F208G).
T2 construct: gene ituA; N-terminally His-tagged fusion of ItuAL (584 aa, RB14) with adjacent MycACP (ATCC6633); pET28a, E. coli BL21-AI; ACP in apo-form; catalytic pocket lies wholly in ItuAL; with Mycosubtilin synthase subunit A, first acyl carrier protein domain
Kind of assay: HPLC of fatty acyl-AMP formed ([…] nm). It counts as biochemical. As to conditions: 1 mM fatty acid, 1 mM ATP, 50 mM MgCl2, 50 mM HEPES pH 7.5, 0.01% Brij35, 30% DMSO, 30 °C, 30 min; 10 μM enzyme, apo-ACP.

T2 sequence (Q93I56 entry or part of it F208G, one chain of several): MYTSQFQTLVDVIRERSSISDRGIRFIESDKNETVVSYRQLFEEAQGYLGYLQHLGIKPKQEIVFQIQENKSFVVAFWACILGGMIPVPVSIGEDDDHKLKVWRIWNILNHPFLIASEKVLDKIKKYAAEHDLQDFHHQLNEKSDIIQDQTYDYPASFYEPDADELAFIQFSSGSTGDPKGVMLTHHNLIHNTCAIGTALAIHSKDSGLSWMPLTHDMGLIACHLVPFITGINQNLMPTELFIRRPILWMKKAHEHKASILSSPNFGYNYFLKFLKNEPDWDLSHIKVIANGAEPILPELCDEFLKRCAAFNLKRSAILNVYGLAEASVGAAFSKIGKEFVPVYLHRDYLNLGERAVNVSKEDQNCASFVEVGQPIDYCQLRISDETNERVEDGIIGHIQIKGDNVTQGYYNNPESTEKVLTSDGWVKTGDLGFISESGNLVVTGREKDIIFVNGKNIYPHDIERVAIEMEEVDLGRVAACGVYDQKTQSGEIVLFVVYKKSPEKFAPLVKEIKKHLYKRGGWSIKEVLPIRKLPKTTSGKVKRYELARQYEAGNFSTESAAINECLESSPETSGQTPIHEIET

For `CCCCCCCCCCCC(=O)O` [C12, lauric acid], the “relative activity (C10 = 100%)” value in assay [1] is reported as “ItuAL_WT exhibited the highest activity against lauric acid (C12)”.

Consider `CCCCCCCCCCCCCCC(=O)O` [C15, pentadecanoic acid], for which the “relative activity (C10 = 100%)” value on (ituAL-ACP1) is given as “ItuAL_F208G exhibited the highest activity against pentadecanoic acid (C15)”.
